Patent US9580433B2 (Janssen Pharmaceutica NV, priority 2013, dated 2017)

Assays:
[1] = tested on: Abeta total produced and secreted by SKNBE2 cells (BACE1); assay: BACE1 cellular αLisa assay in SKNBE2 cells, Abeta total; format: cell-based, human; settings: Homo sapiens, SKNBE2, 18 h, SKNBE2 cells expressing hAPP695, 18 hours incubation; read-out: Cellular αLisa assay in SKNBE2 cells Abetatotal pIC50 (converted)
Protocol: (§1) BACE1 Cellular αLisa Assay in SKNBE2 Cells
(§2) In two αLisa assays the levels of Abeta total and Abeta 1-42 produced and secreted into the medium of human neuroblastoma SKNBE2 cells are quantified. The assay is based on the human neuroblastoma SKNBE2 expressing the wild type Amyloid Precursor Protein (hAPP695). The compounds are diluted and added to these cells, incubated for 18 hours and then measurements of Abeta 1-42 and Abeta total are taken. Abeta total and Abeta 1-42 are measured by sandwich αLisa. αLisa is a sandwich assay using biotinylated antibody AbN/25 attached to streptavidin coated beads and antibody Ab4G8 or cAb42/26 conjugated acceptor beads for the detection of Abeta total and Abeta 1-42 respectively. In the presence of Abeta total or Abeta 1-42, the beads come into close proximity. The excitation of the donor beads provokes the release of singlet oxygen molecules that trigger a cascade of energy transfer in the acceptor beads, resulting in light emission. Light emission is measured after 1 hour incubation (excitation at […] and emission at 615 nm).
(§3) A best-fit curve is fitted by a minimum sum of squares method to the plot of % Controlmin versus compound concentration.

[2] = tested on: brain levels of soluble Aβ42, Aβ40; assay: In vivo Aβ lowering, brain levels of soluble Aβ by MSD electrochemiluminescence; design: species or system mouse; settings: 4 h after administration, untreated control set at 100
Excerpt: To determine whether acute administration of an Aβ lowering agent would reduce Aβ levels in vivo, non-transgenic rodents, e.g. mice or rats were used. Animals treated with the Aβ lowering agent were examined and compared to those untreated or treated with vehicle and brain levels of soluble Aβ42, Aβ40, Aβ38, and Aβ37 were quantitated by Meso Scale Discovery's (MSD) electrochemiluminescence detection technology. Treatment periods varied from hours (h) to days and were adjusted based on the results of the Aβ lowering once a time course of onset of effect could be established.
A typical protocol for measuring Aβ lowering in vivo is shown but it is only one of many variations that could be used to optimize the levels of detectable Aβ. For example, Aβ lowering compounds were formulated in 20% of Captisol® (a sulfo-butyl ether of β-cyclodextrin) in water or 20% hydroxypropyl 3 cyclodextrin. The Aβ lowering agents were administered as a single oral dose or by any acceptable route of administration to overnight fasted animals. After 4 h, the animals were sacrificed and Aβ levels were analysed.
Blood was collected by decapitation and exsanguinations in EDTA-treated collection tubes. Blood was centrifuged at 1900 g for 10 minutes (min) at 4° C. and the plasma recovered and flash frozen for later analysis. The brain was removed from the cranium and hindbrain. The cerebellum was removed and the left and right hemisphere were separated. The left hemisphere was stored at −18° C. for quantitative analysis of test compound levels. The right hemisphere was rinsed with phosphate-buffered saline (PBS) buffer and immediately frozen on dry ice and stored at −80° C. until homogenization for biochemical assays.
Mouse brains from non-transgenic animals were resuspended in 8 volumes of 0.4% DEA (diethylamine)/50 mM NaCl containing protease inhibitors (Roche-11873580001 or 04693159001) per gram of tissue, e.g. for 0.158 g brain, add 1.264 ml of 0.4% DEA. All samples were homogenized in the FastPrep-24 system (MP Biomedicals) using lysing matrix D (MPBio #6913-100) at 6 m/s for 20 seconds. […] Nine parts of supernatant were neutralized with 1 part 0.5 M Tris-HCl pH 6.8 and used to quantify Aβ.
To quantify the amount of Aβ42, Aβ40, Aβ38, and Aβ37 in the soluble fraction of the brain homogenates, simultaneous specific detection of Aβ42, Aβ40, Aβ38, and Aβ37 was performed using MSD's electro-chemiluminescence multiplex detection technology. […] Following this incubation and subsequent wash steps the assay was finished by adding read buffer according to the manufacturer's instructions (Meso Scale Discovery, Gaithersburg, Md.).
The SULFO-TAG emits light upon electrochemical stimulation initiated at the electrode. MSD Sector instrument SI6000 was used for signal read-out. […]

[3] = tested on: Abeta 1-42 produced and secreted by SKNBE2 cells (BACE1); assay: BACE1 cellular αLisa assay in SKNBE2 cells, Abeta 1-42; format: cell-based, human; settings: Homo sapiens, SKNBE2, 18 h, SKNBE2 cells expressing hAPP695, 18 hours incubation; read-out: Cellular αLisa assay in SKNBE2 cells Abeta 42 pIC50 (converted)
Protocol: as §1, §2, §3

BACE2 = target: T1, BACE2 (Homo sapiens, UniProt Q9Y5Z0); assay: BACE2 biochemical FRET based assay; settings: recombinant BACE2, 450 min, pH 5.0; read-out: BACE2 Biochemical FRET based assay pIC50 (converted)
T1 construct: recombinant BACE2 protein in a final concentration of 0.4 μg/ml
T1 sequence (Q9Y5Z0 63-518): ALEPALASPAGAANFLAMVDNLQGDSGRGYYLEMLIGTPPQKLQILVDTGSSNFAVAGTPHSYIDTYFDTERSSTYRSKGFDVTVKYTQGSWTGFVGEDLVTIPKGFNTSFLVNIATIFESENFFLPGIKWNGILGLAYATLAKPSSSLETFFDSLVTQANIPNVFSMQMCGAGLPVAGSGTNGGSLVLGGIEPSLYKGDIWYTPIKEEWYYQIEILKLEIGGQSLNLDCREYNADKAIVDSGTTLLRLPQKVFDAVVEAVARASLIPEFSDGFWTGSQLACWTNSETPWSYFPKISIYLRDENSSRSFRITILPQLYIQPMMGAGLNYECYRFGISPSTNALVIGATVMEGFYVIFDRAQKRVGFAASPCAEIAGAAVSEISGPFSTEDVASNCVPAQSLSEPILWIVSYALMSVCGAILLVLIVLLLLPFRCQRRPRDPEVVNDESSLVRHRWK

BACE1 = target: T2, BACE1 (Homo sapiens, UniProt P56817); assay: BACE1 biochemical FRET based assay; settings: recombinant BACE1, 450 min, pH 5.0; read-out: BACE1 Biochemical FRET based assay pIC50 (converted)
T2 construct: recombinant BACE1 protein in a final concentration of 0.04 g/ml
T2 sequence (P56817 46-501): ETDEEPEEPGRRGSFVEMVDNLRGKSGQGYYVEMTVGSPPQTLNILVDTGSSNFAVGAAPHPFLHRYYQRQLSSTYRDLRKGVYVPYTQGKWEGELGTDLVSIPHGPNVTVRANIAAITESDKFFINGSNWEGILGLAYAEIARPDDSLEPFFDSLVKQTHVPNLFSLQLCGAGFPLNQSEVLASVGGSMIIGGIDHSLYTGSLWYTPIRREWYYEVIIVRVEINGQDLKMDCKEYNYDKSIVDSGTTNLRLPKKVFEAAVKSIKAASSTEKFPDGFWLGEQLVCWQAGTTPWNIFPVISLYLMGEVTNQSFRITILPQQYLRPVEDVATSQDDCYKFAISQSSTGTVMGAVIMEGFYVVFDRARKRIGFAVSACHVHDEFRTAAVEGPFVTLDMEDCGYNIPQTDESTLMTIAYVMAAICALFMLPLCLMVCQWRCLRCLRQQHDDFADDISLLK

C[C@@]1(c2cc(NC(=O)c3ccc(C#N)cn3)ccc2F)Cn2cncc2C(N)=N1 [Compound 5, N-{3-[(6R)-8-Amino-6-methyl-5,6-dihydroimidazo[1,5-a]pyrazin-6-yl]-4-fluorophenyl}-5-cyanopyridine-2-carboxamide]
IC50 [1]: 4.79 nM | Aβ40 (% vs Ctrl)_Mean ([2]; dose 10, s.c.): 108 % vs Ctrl | Aβ42 (% vs Ctrl)_Mean ([2]; dose 10, s.c.): 100 % vs Ctrl | IC50 [3]: 5.25 nM

Cc1nc(C(=O)Nc2ccc(F)c([C@]3(C)Cn4cncc4C(N)=N3)c2)co1 [Compound 4, N-{3-[(6R)-8-Amino-6-methyl-5,6-dihydroimidazo[1,5-a]pyrazin-6-yl]-4-fluorophenyl}-2-methyl-1,3-oxazole-4-carboxamide]
IC50 [1]: 24 nM | IC50 (BACE2): 6.46 nM | Aβ40 (% vs Ctrl)_Mean ([2]; dose 10, p.o.): 111 % vs Ctrl | Aβ42 (% vs Ctrl)_Mean ([2]; dose 10, p.o.): 108 % vs Ctrl | IC50 [3]: 26.3 nM | IC50 (BACE1): 11.7 nM
